Measured values published in US20220402900A1, “1,2,4-OXADIAZOL-5-ONE DERIVATIVES FOR THE TREATMENT OF CANCER” (Basilea Pharmaceutica International AG, priority 2019, published 2022).

Assays:
[1] = test system: TEAD reporter gene activity; assay: TEAD reporter gene assay (MCF7 TEAD reporter cell line); format: cell-based; settings: Homo sapiens; TEAD luciferase reporter in MCF7 cells, 24 hours; read-out: IC50 TEAD RGA (converted)
Text: A TEAD reporter cell line was purchased from BPS Bioscience (cat. no. 60618). It contains the firefly luciferase gene under control of TEAD responsive elements stably integrated into the human breast cancer MCF7 cells. In proliferating cells, a basal level of unphosphorylated YAP/TAZ resides in the nucleus and drives the TEAD-dependent expression of the luciferase reporter. The cells were cultivated as recommended by the supplier. Inhibition of TEAD reporter gene activity by experimental compounds was measured using white, clear-bottom, 96 well cell culture plates (Greiner Bio-One, cat. no. 655098). The cells were seeded at a density of 20,000 cells per well in 100 μL growth medium and the plates were incubated overnight at 37° C. with 5% CO2 prior to treatment. Experimental compounds were serially diluted in DMSO to 200× the desired final concentrations. 0.5 μL aliquots of DMSO or the test samples were then mixed into the wells and the cells were further incubated for 24 hours. Luminescence was then measured on a Synergy 4 reader (BioTek) using the ONE-Glo Luciferase Assay System (Promega, cat. no. E6120) according to the manufacturer's instructions. Relative inhibition values were calculated by normalizing the raw data using DMSO-treated cells (0% inhibition) and wells devoid of cells (100% inhibition). IC50 values were calculated by fitting concentration-response data to a sigmoidal 4-parameter logistic model.

[2] = target: T1, human TEAD2 (amino acids 217-447) (Homo sapiens, UniProt Q15562); assay: Thermal shift assay (TSA); format: binding; settings: 3 μM recombinant TEAD2, compound 7 μM, shift vs DMSO control
T1 construct: human TEAD2 (amino acids 217-447); His-tag (N); purchased Proteros biostructures PR-0365; host or cells: E. coli
T1 sequence (Q15562 217-447): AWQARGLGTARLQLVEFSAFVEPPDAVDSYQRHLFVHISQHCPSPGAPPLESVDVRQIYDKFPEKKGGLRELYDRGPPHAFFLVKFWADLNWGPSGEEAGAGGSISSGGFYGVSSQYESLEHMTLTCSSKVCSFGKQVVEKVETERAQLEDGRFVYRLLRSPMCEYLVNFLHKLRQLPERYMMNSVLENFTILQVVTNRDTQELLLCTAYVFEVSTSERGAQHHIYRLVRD
Procedure: The thermal shift assay (TSA) was utilized to characterize target engagement in vitro based on ligand-dependent thermal stabilization of the protein. N-terminally His-tagged human TEAD2 (amino acids 217-447) expressed and purified from E. coli was purchased from Proteros biostructures (cat no. PR-0365). The melting reactions were performed in white, 96 well qPCR plates (Roche Diagnostics, cat. no. 04 729 692 001) in 20 mM HEPES pH 7, 100 mM NaCl in the presence of 4×SYPRO orange (Sigma, cat. no. S5692). Each well contained 3 μM recombinant TEAD2 and either DMSO (control) or experimental compounds at a final concentration of 7 μM. The total volume was 20 μL and the final DMSO concentration was 1%. The plate was sealed and analyzed in a LightCycler 480 II (Roche Diagnostics) by continuously reading the fluorescence using the 465-580 nm filter set while heating from 25° C. to 95° C. using a linear gradient of 1° C./min. Melting temperatures were determined by numerical differentiation using the LightCycler Thermal Shift Analysis software (Roche Diagnostics). The shifts in melting temperature caused by experimental compounds compared to the control are expressed as ΔTm (Table 2).

Row | Compound | IC50 [1] | ΔTm at 7 µM [2]
1 | COCCOc1ccnc(Nc2ccc(C(F)(F)F)cc2)c1-c1noc(=O)[nH]1 [Example 62, 3-[4-(2-methoxyethoxy)-2-[4-(trifluoromethyl)anilino]-3-pyridyl]-4H-1,2,4-oxadiazol-5-one] | 61 nM | 5.5 °C
2 | O=c1[nH]c(-c2nccnc2Nc2ccc(-c3ccccc3)cc2)no1 [Example 29, 3-[3-(4-phenylanilino)pyrazin-2-yl]-4H-1,2,4-oxadiazol-5-one] | 503 nM | 7.3 °C
3 | CC(=O)Nc1cnc(Nc2ccc(C(F)(F)F)cc2)c(-c2noc(=O)[nH]2)n1 [Example 35, N-[6-(5-oxo-4H-1,2,4-oxadiazol-3-yl)-5-[4-(trifluoromethyl)anilino]pyrazin-2-yl]acetamide] | 3830 nM | 2.5 °C
4 | Cc1cnc(-c2noc(=O)[nH]2)c(Nc2ccc(C(F)(F)F)cc2)n1 [Example 31, 3-[5-methyl-3-[4-(trifluoromethyl)anilino]pyrazin-2-yl]-4H-1,2,4-oxadiazol-5-one] | 35 nM | 10.5 °C
5 | COc1cnc(-c2noc(=O)[nH]2)c(Nc2ccc(C(F)(F)F)cc2)n1 [Example 12, 3-[5-methoxy-3-[4-(trifluoromethyl)anilino]pyrazin-2-yl]-4H-1,2,4-oxadiazol-5-one] | 44 nM | 7.5 °C
6 | Cc1cc(-c2noc(=O)[nH]2)c(Nc2ccc(C(F)(F)F)cc2)nc1C [Example 47, 3-[5,6-dimethyl-2-[4-(trifluoromethyl)anilino]-3-pyridyl]-4H-1,2,4-oxadiazol-5-one] | 72 nM | 18 °C
7 | O=c1[nH]c(-c2ccccc2Nc2ccc(C(F)(F)F)cc2)no1 [Example 38, 3-[2-[4-(trifluoromethyl)anilino]phenyl]-4H-1,2,4-oxadiazol-5-one] | 39 nM | 12.6 °C
8 | Nc1cnc(Nc2ccc(C(F)(F)F)cc2)c(-c2noc(=O)[nH]2)n1 [Example 4, 3-[6-amino-3-[4-(trifluoromethyl)anilino]pyrazin-2-yl]-4H-1,2,4-oxadiazol-5-one] | 85 nM | 2 °C
9 | O=c1[nH]c(-c2nccnc2Nc2cnc(C(F)(F)F)nc2)no1 [Example 23, 3-[3-[[2-(trifluoromethyl)pyrimidin-5-yl]amino]pyrazin-2-yl]-4H-1,2,4-oxadiazol-5-one] | 64 nM | 1.6 °C
10 | O=c1[nH]c(-c2nccnc2Nc2ccc(-c3nccs3)cc2)no1 [Example 18, 3-[3-(4-thiazol-2-ylanilino)pyrazin-2-yl]-4H-1,2,4-oxadiazol-5-one] | 828 nM | 2.5 °C
11 | O=c1[nH]c(-c2c(OC3CCNCC3)ccnc2Nc2ccc(C(F)(F)F)cc2)no1 [Example 67, 3-[4-(4-piperidyloxy)-2-[4-(trifluoromethyl)anilino]-3-pyridyl]-4H-1,2,4-oxadiazol-5-one] | 10700 nM | 7.1 °C
12 | COc1cc(C(F)(F)F)ccc1Nc1nccnc1-c1noc(=O)[nH]1 [Example 21, 3-[3-[2-methoxy-4-(trifluoromethyl)anilino]pyrazin-2-yl]-4H-1,2,4-oxadiazol-5-one] | 102 nM | 2.1 °C
13 | O=c1[nH]c(-c2nccnc2Nc2ccc(C3CC3)cc2)no1 [Example 39, 3-[3-(4-cyclopropylanilino)pyrazin-2-yl]-4H-1,2,4-oxadiazol-5-one] | 2820 nM | 9.3 °C
14 | COc1cnc(Nc2ccc(C(F)(F)F)cc2)c(-c2noc(=O)[nH]2)n1 [Example 5, 3-[6-methoxy-3-[4-(trifluoromethyl)anilino]pyrazin-2-yl]-4H-1,2,4-oxadiazol-5-one] | 117 nM | 4.5 °C
15 | CCc1ccc(Nc2nccnc2-c2noc(=O)[nH]2)cc1 [Example 17, 3-[3-(4-ethylanilino)pyrazin-2-yl]-4H-1,2,4-oxadiazol-5-one] | 708 nM | 8.7 °C
